{"source": "patent US20050214738A1", "about": "“Conditional allele system” (priority 2003, published 2005)", "target": "T1, mutant FRBs (Homo sapiens, UniProt P42345, K2095T/T2098L)", "T1 construct": "The minimal FRB domain comprises amino acids 2025-2114 of human mTor; expressed in transfected cells; host or cells: COS1 cells", "T1 sequence (P42345 2025-2114 K2095T/T2098L)": "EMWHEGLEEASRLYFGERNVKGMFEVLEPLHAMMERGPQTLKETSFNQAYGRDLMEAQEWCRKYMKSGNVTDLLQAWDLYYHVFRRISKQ", "T1 sequence (P62942 2-108 partner)": "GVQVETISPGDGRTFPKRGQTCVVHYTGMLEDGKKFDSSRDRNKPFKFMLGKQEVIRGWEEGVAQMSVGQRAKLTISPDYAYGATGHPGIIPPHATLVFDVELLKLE", "assay": "SeAP transcriptional switch assay, panel of FRB mutants at 2095, 2098, 2101", "type": "cell-based", "conditions": "TLW", "procedure": "All FRB mutants were prepared by the Quikchange mutagenesis method (Stratagene) using protocols provided by the manufacturer. Briefly, PCR reactions containing the parent plasmid pBJ5-FRB-VP16-HA or pBJ5-FRB*-VP16-HA and overlapping oligonucleotides containing the relevant base changes were performed with Pfu polymerase (Stratagene, San Diego, Calif.). PCR reactions were digested with the methylation sensitive restriction endonuclease Dpn1 to eliminate the parent plasmid and the reaction was transformed in XL10-Gold Ultracompetent E. coli (Stratagene).\nElectroporation details are available upon request. Cells were immediately aliquoted to 2 or 3×96 well plates with flat bottoms. […] Data was analysed with Softmax Pro (Molecular Devices), Microsoft Excel and Prism 3 (GraphPad Software)."}
{"substance": "C20-(R or S)-methallylrapamycin [C20-MaRap]", "values": [{"measurement": "binding to the TLW mutant", "value": "inefficiently"}]}
